Molecular target: T1, hFXR (Homo sapiens, UniProt Q96RI1)
T1 construct: expressed in transfected cells; host or cells: CV-1 cells
T1 sequence (Q96RI1 1-486): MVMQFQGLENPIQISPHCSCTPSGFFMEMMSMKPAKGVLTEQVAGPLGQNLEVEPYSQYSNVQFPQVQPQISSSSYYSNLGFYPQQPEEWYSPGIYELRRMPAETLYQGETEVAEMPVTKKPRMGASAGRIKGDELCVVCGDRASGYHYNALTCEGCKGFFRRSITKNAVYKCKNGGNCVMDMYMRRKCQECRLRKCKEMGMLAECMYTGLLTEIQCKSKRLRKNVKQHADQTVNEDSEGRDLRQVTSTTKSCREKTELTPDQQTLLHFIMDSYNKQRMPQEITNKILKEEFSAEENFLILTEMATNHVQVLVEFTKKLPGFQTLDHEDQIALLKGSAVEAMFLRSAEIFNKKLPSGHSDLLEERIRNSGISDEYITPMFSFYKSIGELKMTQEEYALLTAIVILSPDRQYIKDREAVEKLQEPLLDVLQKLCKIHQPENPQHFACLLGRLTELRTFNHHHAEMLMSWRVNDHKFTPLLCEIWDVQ
T1 sequence (P19793 1-462 partner): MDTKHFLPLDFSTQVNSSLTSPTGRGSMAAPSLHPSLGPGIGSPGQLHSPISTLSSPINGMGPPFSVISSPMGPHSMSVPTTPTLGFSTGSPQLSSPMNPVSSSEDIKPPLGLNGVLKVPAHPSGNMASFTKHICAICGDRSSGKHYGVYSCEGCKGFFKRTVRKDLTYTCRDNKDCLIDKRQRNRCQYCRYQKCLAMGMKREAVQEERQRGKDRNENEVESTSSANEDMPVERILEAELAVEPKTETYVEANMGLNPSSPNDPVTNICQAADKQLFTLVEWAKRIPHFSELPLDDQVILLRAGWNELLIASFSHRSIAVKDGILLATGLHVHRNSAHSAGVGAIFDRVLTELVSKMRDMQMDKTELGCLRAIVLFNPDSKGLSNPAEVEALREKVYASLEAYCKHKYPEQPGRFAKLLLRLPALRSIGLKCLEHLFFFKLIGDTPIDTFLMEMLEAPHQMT
Test: In Vitro FXR Assay (TK): TK-ECRE-luc reporter in transfected CV-1 cells
Format: cell-based
Conditions: 18 hrs, luminescence, maximum efficacy of <25% of the Fexarmine control classified as '+'
Method in brief: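 CV-1 cells transiently co-transfected with hFXR, hRXR, TK-ECRE-luc and pCMX-YFP plasmids in charcoal-stripped serum medium. Serially diluted compounds added, cells incubated 18 h at 37° C, then lysed and luminescence read.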

| SMILES | EC50 |
| --- | --- |
| CNC(=O)O[C@H]1CC[C@H](C(=O)N(C[C@H]2CC[C@H](c3ccc(OC)c(C#N)n3)CC2)c2cccc(-c3cnn(C(C)C)c3)c2)CC1 [Compound 5.28, trans-4-(((trans-4-(6-Cyano-5-methoxypyridin-2-yl)cyclohexyl)methyl)(3-(1-isopropyl-1H-pyrazol-4-yl)phenyl)carbamoyl)cyclohexyl methylcarbamate] | ≤ 250 nM |
| CCNC(=O)O[C@H]1CC[C@H](C(=O)N(C[C@H]2CC[C@H](c3ccc(OC)c(C#N)n3)CC2)c2cc(-c3cnn(C(C)C)c3)ccn2)CC1 [Compound 5.29, trans-4-(((trans-4-(6-Cyano-5-methoxypyridin-2-yl)cyclohexyl)methyl)(4-(1-isopropyl-1H-pyrazol-4-yl)pyridin-2-yl)carbamoyl)cyclohexyl ethylcarbamate] | ≤ 250 nM |
| CNC(=O)O[C@H]1CC[C@H](C(=O)N(C[C@H]2CC[C@H](c3ccc(OC)c(C)c3)CC2)c2cccc(-c3coc(C(C)C)n3)c2)CC1 [Compound 5.30, trans-4-((3-(2-Isopropyloxazol-4-yl)phenyl)((trans-4-(4-methoxy-3-methylphenyl)cyclohexyl)methyl)carbamoyl)cyclohexyl methylcarbamate] | ≤ 250 nM |
| CNC(=O)O[C@H]1CC[C@H](C(=O)N(C[C@H]2CC[C@H](c3ccc(OC)c(C)n3)CC2)c2cccc(-c3coc(C(C)C)n3)c2)CC1 [Compound 5.31, trans-4-((3-(2-Isopropyloxazol-4-yl)phenyl)((trans-4-(5-methoxy-6-methylpyridin-2-yl)cyclohexyl)methyl)carbamoyl)cyclohexyl methylcarbamate] | ≤ 250 nM |
| CNC(=O)O[C@H]1CC[C@H](C(=O)N(C[C@H]2CC[C@H](c3ccc(OC)c(C)n3)CC2)c2cccc(-c3coc(C4CC4)n3)c2)CC1 [Compound 5.32, trans-4-((3-(2-Cyclopropyloxazol-4-yl)phenyl)((trans-4-(5-methoxy-6-methylpyridin-2-yl)cyclohexyl)methyl)carbamoyl)cyclohexyl methylcarbamate] | ≤ 250 nM |
| CNC(=O)O[C@H]1CC[C@H](C(=O)N(C[C@H]2CC[C@H](c3ccc(OC)c(C)c3)CC2)c2cc(-c3coc(C4CC4)n3)ccn2)CC1 [Compound 5.33, trans-4-((4-(2-Cyclopropyloxazol-4-yl)pyridine-2-yl)((trans-4-(4-methoxy-3-methylphenyl)cyclohexyl)methyl)carbamoyl)cyclohexyl methylcarbamate] | ≤ 250 nM |
| CNC(=O)O[C@H]1CC[C@H](C(=O)N(C[C@H]2CC[C@H](c3ccc(OC)c(C)n3)CC2)c2cc(-c3coc(C4CC4)n3)ccn2)CC1 [Compound 5.34, trans-4-((4-(2-Cyclopropyloxazol-4-yl)pyridine-2-yl)((trans-4-(5-methoxy-6-methylpyridin-2-yl)cyclohexyl)methyl)carbamoyl)cyclohexyl methylcarbamate] | ≤ 250 nM |
| CNC(=O)O[C@H]1CC[C@H](C(=O)N(C[C@H]2CC[C@H](c3ccc(OC)c(C#N)c3)CC2)c2cccc(-c3coc(C4CC4)n3)c2)CC1 [Compound 5.35, trans-4-(((trans-4-(3-Cyano-4-methoxyphenyl)cyclohexyl)methyl)(3-(2-cyclopropyloxazol-4-yl)phenyl)carbamoyl)cyclohexyl methylcarbamate] | ≤ 250 nM |
| CNC(=O)O[C@H]1CC[C@H](C(=O)N(C[C@H]2CC[C@H](c3ccc(OC)c(C)c3)CC2)c2cccc(-c3ccc(N(C)C)nc3)c2)CC1 [Compound 5.36, trans-4-((3-(6-(Dimethylamino)pyridine-3-yl)phenyl)((trans-4-(4-methoxy-3-methylphenyl)cyclohexyl)methyl)carbamoyl)cyclohexyl methylcarbamate] | ≤ 250 nM |
| CNC(=O)O[C@H]1CC[C@H](C(=O)N(C[C@H]2CC[C@H](c3ccc(OC)c(C)c3)CC2)c2cccc(-c3ccc(C4CC4)nc3)c2)CC1 [Compound 5.37, trans-4-((3-(6-Cyclopropylpyridin-3-yl)phenyl)((trans-4-(4-methoxy-3-methylphenyl)cyclohexyl)methyl)carbamoyl)cyclohexyl methylcarbamate] | ≤ 250 nM |
| CNC(=O)O[C@H]1CC[C@H](C(=O)N(C[C@H]2CC[C@H](c3ccc(OC)c(C)c3)CC2)c2cccc(-c3cnc(N(C)C)nc3)c2)CC1 [Compound 5.38, trans-4-((3-(2-(Dimethylamino)pyrimidin-5-yl)phenyl)((trans-4-(4-methoxy-3-methylphenyl)cyclohexyl)methyl)carbamoyl)cyclohexyl methylcarbamate] | ≤ 250 nM |
| CNC(=O)O[C@H]1CC[C@H](C(=O)N(C[C@H]2CC[C@H](c3ccc(OC)c(C#N)c3)CC2)c2cc(-c3coc(C4CC4)n3)ccn2)CC1 [Compound 5.39, trans-4-(((trans-4-(3-Cyano-4-methoxyphenyl)cyclohexyl)methyl)(4-(2-cyclopropyloxazol-4-yl)pyridine-2-yl)carbamoyl)cyclohexyl methylcarbamate] | ≤ 250 nM |
| CNC(=O)O[C@H]1CC[C@H](C(=O)N(C[C@H]2CC[C@H](c3ccc(OC)c(C)c3)CC2)c2cc(-c3ccc(N(C)C)nc3)ccn2)CC1 [Compound 5.40, trans-4-((6-(Dimethylamino)-[3,4′-bipyridin]-2′-yl)((trans-4-(4-methoxy-3-methylphenyl)cyclohexyl)methyl)carbamoyl)cyclohexyl methylcarbamate] | ≤ 250 nM |
| CNC(=O)O[C@H]1CC[C@H](C(=O)N(C[C@H]2CC[C@H](c3ccc(OC)c(C)n3)CC2)c2cccc(-c3ccc(N(C)C)nc3)c2)CC1 [Compound 5.41, trans-4-((3-(6-((Dimethylamino)pyridine-3-yl)phenyl)((trans-4-(5-methoxy-6-methylpyridin-2-yl)cyclohexyl)methyl)carbamoyl)cyclohexyl methylcarbamate] | ≤ 250 nM |
| CNC(=O)O[C@H]1CC[C@H](C(=O)N(C[C@H]2CC[C@H](c3ccc(OC)c(C#N)n3)CC2)c2cccc(-c3coc(C4CC4)n3)c2)CC1 [Compound 5.42, trans-4-(((trans-4-(6-Cyano-5-methoxypyridin-2-yl)cyclohexyl)methyl)(3-(2-cyclopropyloxazol-4-yl)phenyl)carbamoyl)cyclohexyl methylcarbamate] | ≤ 250 nM |
| CNC(=O)O[C@H]1CC[C@H](C(=O)N(C[C@H]2CC[C@H](c3ccc(OC)c(C)n3)CC2)c2cc(-c3coc(C(C)C)n3)ccn2)CC1 [Compound 5.43, trans-4-((4-(2-Isopropyloxazol-4-yl)pyridine-2-yl)((trans-4-(5-methoxy-6-methylpyridin-2-yl)cyclohexyl)methyl)carbamoyl)cyclohexyl methylcarbamate] | ≤ 250 nM |
| CNC(=O)O[C@H]1CC[C@H](C(=O)N(C[C@H]2CC[C@H](c3ccc(OC)c(C#N)n3)CC2)c2cc(-c3coc(C4CC4)n3)ccn2)CC1 [Compound 5.44, trans-4-(((trans-4-(6-Cyano-5-methoxypyridin-2-yl)cyclohexyl)methyl)(4-(2-cyclopropyloxazol-4-yl)pyridine-2-yl)carbamoyl)cyclohexyl methylcarbamate] | ≤ 250 nM |
| CNC(=O)O[C@H]1CC[C@H](C(=O)N(C[C@H]2CC[C@H](c3ccc(OC)c(C#N)c3)CC2)c2cc(-c3coc(C(C)C)n3)ccn2)CC1 [Compound 5.45, trans-4-(((trans-4-(3-Cyano-4-methoxyphenyl)cyclohexyl)methyl)(4-(2-isopropyloxazol-4-yl)pyridine-2-yl)carbamoyl)cyclohexyl methylcarbamate] | ≤ 250 nM |
| CNC(=O)O[C@H]1CC[C@H](C(=O)N(C[C@H]2CC[C@H](c3ccc(OC)c(C#N)n3)CC2)c2cccc(-c3coc(C(C)C)n3)c2)CC1 [Compound 5.46, trans-4-(((trans-4-(6-Cyano-5-methoxypyridin-2-yl)cyclohexyl)methyl)(3-(2-isopropyloxazol-4-yl)phenyl)carbamoyl)cyclohexyl methylcarbamate] | ≤ 250 nM |
| CCNC(=O)O[C@H]1CC[C@H](C(=O)N(C[C@H]2CC[C@H](c3ccc(OC)c(C)n3)CC2)c2cc(-c3coc(C4CC4)n3)ccn2)CC1 [Compound 5.47, trans-4-((4-(2-Cyclopropyloxazol-4-yl)pyridine-2-yl)((trans-4-(5-methoxy-6-methylpyridin-2-yl)cyclohexyl)methyl)carbamoyl)cyclohexyl ethylcarbamate] | ≤ 250 nM |
| COc1ccc([C@H]2CC[C@H](CN(c3cc(-c4coc(C5CC5)n4)ccn3)C(=O)[C@H]3CC[C@H](OC(N)=O)CC3)CC2)nc1C [Compound 5.48, trans-4-((4-(2-Cyclopropyloxazol-4-yl)pyridine-2-yl)((trans-4-(5-methoxy-6-methylpyridin-2-yl)cyclohexyl)methyl)carbamoyl)cyclohexyl carbamate] | ≤ 250 nM |

From patent US20220089575A1, “FARNESOID X RECEPTOR AGONISTS AND USES THEREOF” (Metacrine, Inc., priority 2017, published 2022)
